Values of other authors, collected in patent publication US20130338178A1, “SIRTUIN MODULATORS AS INHIBITORS OF CYTOMEGALOVIRUS” (THE TRUSTEES OF PRINCETON UNIVERSITY, priority 2011, published 2013).

How the values were obtained:
sirtuin = settings: cited from earlier work; for % Activity at 50 μM / % Activity at 500 μM: residual enzyme activity relative to control with no inhibitor; for IC50: analogs of compound 12
SIRT1 = target: T1, SIRT1 (Homo sapiens, UniProt Q96EB6); settings: SIRT1 preincubated with NAD+ and compound, means ± SD, cited from earlier work
T1 sequence (Q96EB6 1-747): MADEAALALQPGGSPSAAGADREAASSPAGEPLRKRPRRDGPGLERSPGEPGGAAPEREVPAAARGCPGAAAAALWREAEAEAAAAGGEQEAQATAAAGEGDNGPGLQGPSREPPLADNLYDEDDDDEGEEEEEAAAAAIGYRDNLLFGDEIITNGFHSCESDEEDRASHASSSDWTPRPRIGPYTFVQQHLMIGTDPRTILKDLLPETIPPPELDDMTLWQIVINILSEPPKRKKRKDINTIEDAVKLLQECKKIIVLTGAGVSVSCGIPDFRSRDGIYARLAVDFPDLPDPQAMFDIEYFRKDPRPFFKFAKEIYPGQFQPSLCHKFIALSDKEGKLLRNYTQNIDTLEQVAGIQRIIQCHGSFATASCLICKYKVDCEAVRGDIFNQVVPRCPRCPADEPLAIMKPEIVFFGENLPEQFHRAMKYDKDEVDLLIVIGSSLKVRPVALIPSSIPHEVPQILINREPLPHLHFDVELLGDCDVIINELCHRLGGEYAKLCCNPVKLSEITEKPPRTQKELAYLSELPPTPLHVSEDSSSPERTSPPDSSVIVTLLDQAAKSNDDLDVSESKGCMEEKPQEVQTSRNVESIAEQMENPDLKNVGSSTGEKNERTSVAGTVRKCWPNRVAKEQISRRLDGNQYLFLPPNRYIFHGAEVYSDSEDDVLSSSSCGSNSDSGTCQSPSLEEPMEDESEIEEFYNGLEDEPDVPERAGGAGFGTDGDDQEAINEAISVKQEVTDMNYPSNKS

SIRT2 = target: T2, SIRT2 (Homo sapiens, UniProt Q8IXJ6); settings: cited from earlier work
T2 sequence (Q8IXJ6 1-389): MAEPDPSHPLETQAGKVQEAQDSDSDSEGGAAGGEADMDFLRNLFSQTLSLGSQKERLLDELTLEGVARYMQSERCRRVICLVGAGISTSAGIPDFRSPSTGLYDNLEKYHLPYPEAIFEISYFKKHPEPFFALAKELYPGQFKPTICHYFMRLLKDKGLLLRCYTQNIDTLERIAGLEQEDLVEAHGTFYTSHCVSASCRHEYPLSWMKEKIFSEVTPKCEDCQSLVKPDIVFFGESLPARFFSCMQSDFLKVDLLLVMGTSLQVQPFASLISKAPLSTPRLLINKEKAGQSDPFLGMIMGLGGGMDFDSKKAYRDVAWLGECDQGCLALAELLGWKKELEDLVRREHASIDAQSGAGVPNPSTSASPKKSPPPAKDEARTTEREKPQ

| SMILES | inhibition at 300 μM (%) (SIRT1) | IC50 (SIRT1) | further results |
| --- | --- | --- | --- |
| COCC#CC1c2cc(O)c(OC)cc2CCN1Cc1ccc(OC)cc1 (stereo not drawn) [Compound 14b] |  |  | % Activity at 50 μM (sirtuin): 92%; % Activity at 500 μM (sirtuin): 2% |
| COc1ccc(OCCCC(=O)Oc2ccc3c(C)cc(=O)oc3c2)cc1 [compound 6959933] |  |  | % Activity at 50 μM (sirtuin): 93%; % Activity at 500 μM (sirtuin): 35% |
| O=C(Cc1ccccc1[N+](=O)[O-])NCCCC[C@H](NC(=O)OCc1ccccc1)C(=O)Nc1ccccc1 [2h] | 40 ± 12% | > 300 µM |  |
| CCCC(=O)CC(=O)NCCCC[C@H](NC(=O)OCc1ccccc1)C(=O)Nc1ccccc1 [2x] | 78 ± 5.2% |  |  |
| COC/C=C\C1c2cc(O)c(OC)cc2CCN1C (stereo not drawn) [7-129] |  |  | % Activity at 50 μM (sirtuin): 97%; % Activity at 500 μM (sirtuin): 94% |
| CCCCOC(=O)CC(=O)NCCCC[C@H](NC(=O)OCc1ccccc1)C(=O)Nc1ccccc1 [2n] | 64 ± 6.1% | 73 ± 3.2 µM |  |
| COc1ccc2c(c1)Cc1cc(/N=[N+](\[O-])c3ccc4c(c3)Cc3cc(OC)ccc3-4)ccc1-2 [CSC32] |  |  | Sirt2 effect (SIRT2): inhibition |
| NC(=O)CC(=O)NCCCC[C@H](NC(=O)OCc1ccccc1)C(=O)Nc1ccccc1 [2s] | 25 ± 2.3% | > 300 µM |  |
| O=C(CC(=O)OCC(F)(F)F)NCCCC[C@H](NC(=O)OCc1ccccc1)C(=O)Nc1ccccc1 [2q] | 94 ± 1.5% | 15 ± 3.1 µM |  |
| [H]/N=C(\c1cc(C)cc(C)c1)c1ccccc1Cc1cccc2ccccc12 [CSC23] |  |  | Sirt2 effect (SIRT2): inhibition |
| N#CCC(=O)NCCCC[C@H](NC(=O)OCc1ccccc1)C(=O)Nc1ccccc1 [2a] | 50 ± 7.9% |  |  |
| Cc1cc(=O)oc2cc(OC(=O)COc3ccccc3)ccc12 [compound 5237467] |  |  | % Activity at 50 μM (sirtuin): 91%; % Activity at 500 μM (sirtuin): 45% |
| Nc1ccc2c(c1)C(=O)N(CCC(=O)O)C2 [compound 42071] |  |  | IC50 (sirtuin): No inhibition |
| Cc1ccc(OCCCC(=O)Oc2ccc3c(C)cc(=O)oc3c2)c(C)c1 [compound 7988362] |  |  | % Activity at 50 μM (sirtuin): 90%; % Activity at 500 μM (sirtuin): 51% |
| COC(=O)CC(=O)NCCCC[C@H](NC(=O)OCc1ccccc1)C(=O)Nc1ccccc1 [2j] | 92 ± 1.2% | 35 ± 5.2 µM |  |
| CSCC(=O)NCCCC[C@H](NC(=O)OCc1ccccc1)C(=O)Nc1ccccc1 [2c] | 32 ± 20% | > 300 µM |  |
| COc1cc2c(cc1O)CN(C)CC2 [7-133] |  |  | % Activity at 50 μM (sirtuin): 100%; % Activity at 500 μM (sirtuin): 98% |
| O=C1c2ccccc2C(=O)N1CCBr [compound 91032] |  |  | IC50 (sirtuin): No inhibition |
| O=C(O)CCCN1C(=O)c2ccccc2C1=O [compound 47032] |  |  | IC50 (sirtuin): No inhibition |

| SMILES | inhibition at 300 μM (%) (SIRT1) | IC50 (SIRT1) | further results |
| --- | --- | --- | --- |
| Oc1ccc(Cc2ccccc2)cc1 [compound 72030] |  |  | % Activity at 50 μM (sirtuin): 100%; % Activity at 500 μM (sirtuin): 88% |
| [H]/N=C(\c1ccccc1Cc1cccc2ccccc12)c1ccc(C)c2ccccc12 [CSC24] |  |  | Sirt2 effect (SIRT2): inhibition |
| [H]/N=C(\c1ccc2ccccc2c1)c1ccccc1Cc1ccccc1 [CSC22] |  |  | Sirt2 effect (SIRT2): inhibition |
| CC(C)OC(=O)CC(=O)NCCCC[C@H](NC(=O)OCc1ccccc1)C(=O)Nc1ccccc1 [2m] | 72 ± 5.1% | 47 ± 5.3 µM |  |
| C[S+]([O-])CC(=O)NCCCC[C@H](NC(=O)OCc1ccccc1)C(=O)Nc1ccccc1 (stereo partly drawn) [2d] | 46 ± 3.0% | > 300 µM |  |
| CCC(=O)CC(=O)NCCCC[C@H](NC(=O)OCc1ccccc1)C(=O)Nc1ccccc1 [2w] | 67 ± 1.2% | 88 ± 3.9 µM |  |
| CC12Cc3cnc(-c4ccccc4)nc3CC1CCC1C2CCC2(C)C1CCC2(C)O (stereo not drawn) [CSC13] |  |  | Sirt2 effect (SIRT2): inhibition |
| Cc1cc(=O)oc2cc(OC(=O)CCCOc3ccc(Cl)cc3Cl)ccc12 [compound 5366302] |  |  | % Activity at 50 μM (sirtuin): 90%; % Activity at 500 μM (sirtuin): 68% |
| O=C(O)CCN1C(=O)c2ccc(-c3nc4ccccc4c(=O)o3)cc2C1=O [compound 47054] |  |  | IC50 (sirtuin): No inhibition |
| CS(=O)(=O)CC(=O)NCCCC[C@H](NC(=O)OCc1ccccc1)C(=O)Nc1ccccc1 [2e] | 56 ± 1.9% |  |  |
| C=C(C(C)c1ccc2c(c1)Cc1ccccc1-2)C(C)c1ccc2c(c1)Cc1ccccc1-2 (stereo not drawn) [CSC7] |  |  | Sirt2 effect (SIRT2): inhibition |
| O=C(Cc1ccc(C(F)(F)F)cc1)NCCCC[C@H](NC(=O)OCc1ccccc1)C(=O)Nc1ccccc1 [2g] | 41 ± 20% | > 300 µM |  |
| O=C(CC(=O)C(F)(F)F)NCCCC[C@H](NC(=O)OCc1ccccc1)C(=O)Nc1ccccc1 [2y] | 7.9 ± 0.92% | > 300 µM |  |
| C#CC1c2cc(O)c(OC)cc2CCN1C (stereo not drawn) [7-52] |  |  | % Activity at 50 μM (sirtuin): 100%; % Activity at 500 μM (sirtuin): 86% |
| C[S+]([O-])CCC(C(=O)O)N1C(=O)c2ccccc2C1=O (stereo not drawn) [compound 00032] |  |  | IC50 (sirtuin): No inhibition |
| CC(=O)CC(=O)NCCCC[C@H](NC(=O)OCc1ccccc1)C(=O)Nc1ccccc1 [2v] | 45 ± 6.0% | > 300 µM |  |
| O=C(CC(=O)OCC1CC1)NCCCC[C@H](NC(=O)OCc1ccccc1)C(=O)Nc1ccccc1 [2p] | 93 ± 1.2% | 14 ± 2.6 µM |  |
| Nc1cccc(Cc2cccc(N)c2)c1 [compound 56413] |  |  | % Activity at 50 μM (sirtuin): 100%; % Activity at 500 μM (sirtuin): 100% |
| Cc1cccc(OCC(=O)Oc2ccc3c(C)cc(=O)oc3c2)c1 [compound 5140108] |  |  | % Activity at 50 μM (sirtuin): 90%; % Activity at 500 μM (sirtuin): 13% |

| SMILES | inhibition at 300 μM (%) (SIRT1) | IC50 (SIRT1) | further results |
| --- | --- | --- | --- |
| CNC(=O)CC(=O)NCCCC[C@H](NC(=O)OCc1ccccc1)C(=O)Nc1ccccc1 [2t] | 24 ± 2.5% | > 300 µM |  |
| CC(C)(C)OC(=O)CC(=O)NCCCC[C@H](NC(=O)OCc1ccccc1)C(=O)Nc1ccccc1 [2o] | 6.0 ± 0.64% | > 300 µM |  |
| O=C(CC(=O)OCc1ccccc1)NCCCC[C@H](NC(=O)OCc1ccccc1)C(=O)Nc1ccccc1 [2r] | 71 ± 4.3% | 96 ± 4.8 µM |  |
| C(=C1c2ccccc2-c2ccccc21)c1ccc(N=C2c3ccccc3-c3ccccc32)cc1 [CSC2] |  |  | Sirt2 effect (SIRT2): inhibition |
| COCCCC1c2cc(O)c(OC)cc2CCN1C (stereo not drawn) [7-128] |  |  | % Activity at 50 μM (sirtuin): 99%; % Activity at 500 μM (sirtuin): 92% |
| OC(c1ccccc1)c1ccc(C(F)(F)F)cc1 (stereo not drawn) [compound 97211] |  |  | % Activity at 50 μM (sirtuin): 100%; % Activity at 500 μM (sirtuin): 81% |
| COCC#CC1(C)c2cc(O)c(OC)cc2CCN1C (stereo not drawn) [7-123] |  |  | % Activity at 50 μM (sirtuin): 100%; % Activity at 500 μM (sirtuin): 100% |
| CC(C)C(=O)CCN1C(=O)c2ccccc2C1=O [compound 04265] |  |  | IC50 (sirtuin): No inhibition |
| Cc1cc(Cc2cc(C)c(O)c(C)c2)cc(C)c1O [compound 97252] |  |  | % Activity at 50 μM (sirtuin): 89%; % Activity at 500 μM (sirtuin): 43% |
| O=C(Cc1ccc([N+](=O)[O-])cc1)NCCCC[C@H](NC(=O)OCc1ccccc1)C(=O)Nc1ccccc1 [2i] | 51 ± 17% |  |  |
| CCc1ccc(OCCCC(=O)Oc2ccc3c(C)cc(=O)oc3c2)cc1 [compound 6802623] |  |  | % Activity at 50 μM (sirtuin): 86%; % Activity at 500 μM (sirtuin): 53% |
| Cc1ccc(OCCCC(=O)Oc2ccc3c(C)cc(=O)oc3c2)cc1 [compound 6836332] |  |  | % Activity at 50 μM (sirtuin): 99%; % Activity at 500 μM (sirtuin): 57% |
| CCOC(=O)CC(=O)NCCCC[C@H](NC(=O)OCc1ccccc1)C(=O)Nc1ccccc1 [2k] | 91 ± 1.3% | 3.9 ± 0.29 µM |  |
| CN(C)C(=O)CC(=O)NCCCC[C@H](NC(=O)OCc1ccccc1)C(=O)Nc1ccccc1 [2u] | 20 ± 1.3% | > 300 µM |  |
| O=C(CC(=O)c1ccccc1)NCCCC[C@H](NC(=O)OCc1ccccc1)C(=O)Nc1ccccc1 [2z] | 37 ± 7.4% | > 300 µM |  |
| O=C(CC(F)(F)F)NCCCC[C@H](NC(=O)OCc1ccccc1)C(=O)Nc1ccccc1 [2b] | 44 ± 17% | > 300 µM |  |
| O=C(Cc1ccccc1C(F)(F)F)NCCCC[C@H](NC(=O)OCc1ccccc1)C(=O)Nc1ccccc1 [2f] | 49 ± 13% | > 300 µM |  |
| CCCOC(=O)CC(=O)NCCCC[C@H](NC(=O)OCc1ccccc1)C(=O)Nc1ccccc1 [2l] | 71 ± 0.72% | 62 ± 3.7 µM |  |
| O=C(O)CCN1C(=O)c2cc(Cl)c(Cl)cc2C1=O [compound 39008] |  |  | IC50 (sirtuin): No inhibition |
